# Reference: US7109193B2, “Tricyclic diazepines tocolytic oxytocin receptor antagonists” (Wyeth, priority 2001, dated 2006)
row,SMILES,melting point
1,COc1cc(-c2ccccc2C)ccc1C(=O)N1Cc2ccc(C(=O)O)n2Cc2ccccc21,201 to 204 °C
2,Cc1cc(C(=O)N2Cc3ccc(C(=O)O)n3Cc3ccccc32)ccc1-c1ccccc1C(F)(F)F,233 to 235 °C
3,COc1cc(-c2ccccc2F)c(Cl)cc1C(=O)N1Cc2ccc(C(=O)O)n2Cc2ccccc21,207 to 208 °C
